Results on 14 compounds are retold here after ChEMBL document CHEMBL1201862, “PubChem BioAssay data set” (2004).

Test systems include M14; RXF 393; SNB-75; EKVX; NCI-H460; SK-MEL-2; LOX IMVI; OVCAR-3; HCC 2998; A549; OVCAR-5; HCT-15; HOP-92; DMS-273; U-251; CAKI-1.
Common to all, as to test: NCI tumour cell line growth inhibition, 48 h

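Exposure lasted 48 hours, with cells grown in 96-well plates and compounds tested at five concentrations. Here, GI50 denotes the concentration required for 50% inhibition of growth.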 Active and inactive are the calls of the source. No stated cut-off is given here; in the data, active = GI50 up to about 1.1 µM and inactive = higher.

Take `C#CN1C(=O)c2c(c(-c3ccccc3)c(-c3ccc(Oc4ccc(-c5c(-c6ccccc6)c6c(c(-c7ccccc7)c5-c5ccccc5)C(=O)N(C#C)C6=O)cc4)cc3)c(-c3ccccc3)c2-c2ccccc2)C1=O`: the GI50 in the experiment on M14 is 80.7 µM (inactive); in the experiment with RXF 393, 30.8 µM (inactive); in the experiment on SNB-75 it was > 100 µM (inactive); in the experiment on EKVX it was > 100 µM (inactive); in the experiment with NCI-H460 it was > 100 µM (inactive); in the experiment on SK-MEL-2, > 100 µM (inactive). The GI50 in the experiment with LOX IMVI is > 100 µM (inactive); with OVCAR-3, > 100 µM (inactive); in the experiment with HCC 2998 it was > 100 µM (inactive); in the experiment with A549 it was > 100 µM (inactive); in the experiment with OVCAR-5, > 100 µM (inactive); with HCT-15, 30.8 µM. Moreover, the figures for the GI50 in the experiment on HOP-92, in the experiment on DMS-273 and in the experiment with U-251 were 21.9 µM (inactive), > 100 µM (inactive) and > 100 µM (inactive), respectively.
As to `CC(=O)CNC(=O)OC(C)(C)C`, the GI50 in the experiment with M14, with RXF 393, with SNB-75, in the experiment on EKVX, with NCI-H460 and in the experiment with SK-MEL-2 was > 100 µM (inactive) throughout. Moreover, the GI50 with OVCAR-3, in the experiment on CAKI-1, in the experiment with A549, with OVCAR-5, in the experiment with HOP-92 and in the experiment on DMS-273 was > 100 µM (inactive) each time. Also, the GI50 in the experiment with U-251 is > 100 µM (inactive).
For the compound `COc1ccc(-c2nc3c(nc2-c2ccc(OC)cc2)C(N)=NS(=O)(=O)N3)cc1`, the GI50 in the experiment on RXF 393, in the experiment with SNB-75, in the experiment with EKVX, with SK-MEL-2, with LOX IMVI and in the experiment on OVCAR-3 was > 100 µM (inactive) in each case. In addition, the GI50 in the experiment with CAKI-1 was > 100 µM (inactive); with HCC 2998, > 100 µM (inactive); in the experiment on A549 it was > 100 µM (inactive); in the experiment on OVCAR-5 it was > 100 µM (inactive); in the experiment with HCT-15, above 100 µM; with DMS-273 it was > 100 µM (inactive). For the same compound, the GI50 in the experiment on U-251 is > 100 µM (inactive).
With `O=C(/C=C1/Nc2ccc([N+](=O)[O-])cc2NC1O)c1cccc([N+](=O)[O-])c1` (stereo unspecified), the GI50 with M14 was 21.5 µM (inactive); in the experiment with RXF 393, 23.6 µM (inactive); with SNB-75 it was 46.3 µM (inactive); in the experiment on EKVX, > 100 µM (inactive); with NCI-H460, 39.2 µM (inactive); with LOX IMVI, 22.2 µM (inactive). The GI50 in the experiment on OVCAR-3 was 35.6 µM (inactive); in the experiment with CAKI-1, 56.9 µM (inactive); in the experiment with HCC 2998, 53.5 µM (inactive); with A549 it was 58.7 µM (inactive); with HCT-15, 23.5 µM; with HOP-92 it was > 100 µM (inactive). Also, the figures for the GI50 in the experiment on DMS-273 and in the experiment with U-251 were 16.3 µM (inactive) and 21 µM (inactive), respectively.
With `CC1(C)CC(=O)C2=C(C1)S/C(=C1/SC3=C(S1)C(=O)CC(C)(C)C3)S2`, the GI50 with M14, with RXF 393, in the experiment with SNB-75, in the experiment with EKVX, in the experiment on NCI-H460 and in the experiment with SK-MEL-2 was > 251 µM (inactive) each time. The GI50 with LOX IMVI is > 251 µM (inactive); in the experiment with OVCAR-3, > 251 µM (inactive); in the experiment with HCC 2998 it was > 251 µM (inactive); with A549, > 251 µM (inactive); in the experiment on HCT-15, above 251 µM; in the experiment on HOP-92 it was > 251 µM (inactive). For the same compound, the GI50 in the experiment with DMS-273 and with U-251 was > 251 µM (inactive) throughout.
`O=C(/C=C/c1ccc(OCCCCCCCCCCOc2ccc(/C=C/C(=O)c3ccc(Cl)cc3)cc2)cc1)c1ccc(Cl)cc1`: the GI50 with RXF 393, in the experiment on SNB-75, with EKVX, with NCI-H460, in the experiment on SK-MEL-2 and in the experiment on LOX IMVI was > 100 µM (inactive) in each case. Moreover, the GI50 was > 100 µM (inactive) in the experiment on OVCAR-3; > 100 µM (inactive) in the experiment with CAKI-1; > 100 µM (inactive) in the experiment on HCC 2998; > 100 µM (inactive) in the experiment with A549; > 100 µM (inactive) in the experiment with OVCAR-5; above 100 µM in the experiment on HCT-15. The GI50 in the experiment on HOP-92, with DMS-273 and with U-251 was > 100 µM (inactive) throughout.
Regarding `Nc1nc2ncn(CC(O)CO)c2c(=S)[nH]1` (stereo unspecified), the GI50 in the experiment with M14, in the experiment on RXF 393, in the experiment with SNB-75, in the experiment on EKVX, in the experiment on NCI-H460 and with SK-MEL-2 was > 100 µM (inactive) throughout. For the same compound, the GI50 with LOX IMVI was > 100 µM (inactive); in the experiment with OVCAR-3, > 100 µM (inactive); in the experiment with CAKI-1 it was > 100 µM (inactive); in the experiment with A549 it was > 100 µM (inactive); in the experiment on OVCAR-5 it was > 100 µM (inactive); with HCT-15 it was above 100 µM. Moreover, the GI50 in the experiment with HOP-92, in the experiment on DMS-273 and in the experiment on U-251 was > 100 µM (inactive) in each case.
With `COC(=O)/C=C/c1cc(OC)c(OC)c(OC)c1`, the GI50 in the experiment on M14 is > 100 µM (inactive); in the experiment on RXF 393, > 100 µM (inactive); in the experiment with SNB-75, 41.6 µM (inactive); with EKVX, > 100 µM (inactive); with NCI-H460 it was > 100 µM (inactive); in the experiment with SK-MEL-2 it was > 100 µM (inactive). In addition, the GI50 was > 100 µM (inactive) in the experiment on LOX IMVI; > 100 µM (inactive) with OVCAR-3; > 100 µM (inactive) in the experiment on CAKI-1; > 100 µM (inactive) in the experiment with HCC 2998; > 100 µM (inactive) with A549; above 100 µM in the experiment on HCT-15. The GI50 in the experiment with HOP-92 and with DMS-273 was > 100 µM (inactive) throughout.
Regarding `Cc1ccc(C2(O)CC(c3ccc([N+](=O)[O-])o3)=NN2C(=O)COc2ccc(Cl)cc2)cc1` (stereo unspecified), the GI50 in the experiment on M14 was 4.93 µM (inactive); in the experiment with SNB-75 it was 13.6 µM (inactive); in the experiment on EKVX it was 6.3 µM (inactive); with NCI-H460, 6.3 µM (inactive); with SK-MEL-2, 4.44 µM (inactive); in the experiment on LOX IMVI it was 4.59 µM (inactive). In addition, the GI50 in the experiment with OVCAR-3 is 5.35 µM (inactive); with CAKI-1, 12.6 µM (inactive); in the experiment on HCC 2998 it was 6 µM (inactive); with A549, 7.29 µM (inactive); in the experiment on OVCAR-5 it was 37.2 µM (inactive); in the experiment with HCT-15, 3.1 µM. Moreover, the GI50 with HOP-92 was 7.93 µM (inactive); with DMS-273, 6.32 µM (inactive); with U-251, 2.28 µM (inactive).
On to `COc1ccc(/C(=N\NC(=N)N)C(c2ccc(OC)cc2)C2OC(=O)c3ccccc32)cc1` (stereo unspecified), for which the GI50 is > 100 µM (inactive) in the experiment on M14; > 100 µM (inactive) in the experiment with RXF 393; 67.5 µM (inactive) in the experiment on SNB-75; > 100 µM (inactive) with NCI-H460; > 100 µM (inactive) with LOX IMVI; > 100 µM (inactive) with OVCAR-3. Also, the GI50 was > 100 µM (inactive) in the experiment on CAKI-1; > 100 µM (inactive) with HCC 2998; > 100 µM (inactive) with A549; > 100 µM (inactive) with OVCAR-5; above 100 µM in the experiment with HCT-15; > 100 µM (inactive) in the experiment with HOP-92. For the same compound, the GI50 with DMS-273 and in the experiment with U-251 was > 100 µM (inactive) each time.
For the compound `C1=CC(N(c2ccccc2)C2C=CCCC2)CCC1` (stereo unspecified), the GI50 with M14 was > 100 µM (inactive); in the experiment with RXF 393, 48.6 µM (inactive); in the experiment on EKVX it was > 100 µM (inactive); in the experiment with NCI-H460, > 100 µM (inactive); with LOX IMVI, > 100 µM (inactive); in the experiment with CAKI-1, > 100 µM (inactive). Also, the GI50 is > 100 µM (inactive) in the experiment with A549; above 100 µM in the experiment on HCT-15; 35.8 µM (inactive) in the experiment on HOP-92; > 100 µM (inactive) in the experiment with DMS-273; > 100 µM (inactive) in the experiment on U-251.
In the case of `Clc1cccc(-c2nnc(-c3nn(-c4ccccc4)c4nc5ccccc5nc34)o2)c1`, the GI50 in the experiment with M14 is > 100 µM (inactive); in the experiment with RXF 393, 56.2 µM (inactive); in the experiment with SNB-75 it was 36.6 µM (inactive); in the experiment on EKVX, > 100 µM (inactive); in the experiment with NCI-H460, > 100 µM (inactive); in the experiment with SK-MEL-2, > 100 µM (inactive). Moreover, the GI50 with LOX IMVI, in the experiment on OVCAR-3, with CAKI-1, in the experiment on HCC 2998, in the experiment with A549 and in the experiment on OVCAR-5 was > 100 µM (inactive) in each case. In addition, the results for the GI50 in the experiment on HCT-15, with DMS-273 and in the experiment on U-251 were above 100 µM, > 100 µM (inactive) and > 100 µM (inactive), respectively.
Consider `O=C1Nc2ccccc2C12CCNC2Cc1ccccc1` (stereo unspecified), for which the GI50 in the experiment with M14, with SNB-75, in the experiment with EKVX, in the experiment with NCI-H460, in the experiment with SK-MEL-2 and in the experiment on LOX IMVI was > 100 µM (inactive) throughout. In addition, the GI50 was > 100 µM (inactive) with OVCAR-3; > 100 µM (inactive) with CAKI-1; > 100 µM (inactive) with HCC 2998; > 100 µM (inactive) with A549; > 100 µM (inactive) in the experiment with OVCAR-5; above 100 µM with HCT-15. The figures for the GI50 with HOP-92, with DMS-273 and in the experiment on U-251 were 76.6 µM (inactive), > 100 µM (inactive) and > 100 µM (inactive), respectively.
As to `COc1ccc(C2S/C(=C\c3ccc([N+](=O)[O-])cc3)C(=O)N2NC(=O)Cc2ccccc2)cc1` (stereo unspecified), the GI50 in the experiment with M14 was > 100 µM (inactive); in the experiment with RXF 393 it was 25.6 µM (inactive); with SNB-75 it was 53.8 µM (inactive); in the experiment on NCI-H460, > 100 µM (inactive); with SK-MEL-2, > 100 µM (inactive); in the experiment with LOX IMVI it was > 100 µM (inactive). In addition, the GI50 was > 100 µM (inactive) in the experiment on CAKI-1; > 100 µM (inactive) with A549; > 100 µM (inactive) with OVCAR-5; 79.8 µM with HCT-15; > 100 µM (inactive) in the experiment with HOP-92; > 100 µM (inactive) in the experiment on DMS-273. Moreover, the GI50 with U-251 is 79.3 µM (inactive).
